Our source for the half-life and IC50 values is patent US20230159445A1, “STAT INHIBITORY COMPOUNDS AND COMPOSITIONS” (JANPIX LIMITED, priority 2020, published 2023).

Data set [1] has as its system glutathione (GSH). The data set is described as follows: Reactivity Profiling with Glutathione (GSH), half-life by HPLC. The settings on record: 5 mM glutathione (GSH) in IMDM with 10% FBS.
For data set [2], the system named is MV4-11 cells. The experiment in a line: MV4-11 Cell Cytotoxicity Assay (CellTiter-Blue, 72 h). It is filed as cell-based, human. The settings on record: Homo sapiens, MV4-11; MV-4-11 cells. Summed up: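 Cells seeded 24 h before treatment, then exposed 72 h at 37° C, 5% CO2 to inhibitors in triplicate, top concentration 50 μM with 1:2 serial dilutions (0.5% DMSO vehicle). Viability read by CellTiter-Blue fluorescence at 560/590 nm after 1 h.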

The subject of data set [3] is normal human fibroblast (NHF) cells. The experiment in a line: NHF Cell Cytotoxicity Assay (CellTiter-Blue, 72 h), off-target effects. The settings on record: Homo sapiens, Fibroblast; pooled NHF cells. Format: cell-based. Summed up:
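Normal human fibroblasts (1×10^4/well, 10% FBS medium) were treated after 24 h with inhibitor at 0.097656-50 μM for 72 h at 37° C. Viability was read by CellTiter-Blue fluorescence (560/590 nm), normalized to DMSO control, and IC50 obtained from a variable-slope log(inhibitor)-response fit of four replicates.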
For orientation: Alamar Blue is a resazurin reagent that responds to reducing activity.

As usually defined, the half-life is the time in which the quantity being followed falls by half. Broadly, the IC50 is the midpoint of a concentration-inhibition curve. A higher IC50 goes with lower potency. Compound `O=C(O)c1ccc(N(Cc2cc(C3CC3)cc(C3CC3)c2)C(=O)CN(Cc2ncc(F)cc2Cl)S(=O)(=O)c2c(F)c(F)c(F)c(F)c2F)c(OC2CC2)c1` [Compound 1214, 4-(2-(N-((3-chloro-5-fluoropyridin-2-yl)methyl)-(2,3,4,5,6-pentafluorophenyl)sulfon-amido)-N-(3,5-dicyclopropylbenzyl)acetamido)-3-cyclopropoxybenzoic acid] gave a half-life at 25 μM in data set [1] of 247 to 554 min. Moreover, the IC50 in data set [2] was in the range of 0.01 to 316 nM; in data set [3], 0.001 to 10 µM.

Regarding `CN(C)c1cc(C(=O)O)ccc1N(Cc1cc(C2CC2)cc(C2CC2)c1)C(=O)CN(Cc1ccccc1C(F)(F)F)S(=O)(=O)c1c(F)c(F)c(F)c(F)c1F` [Compound 1215, 4-(N-(3,5-dicyclopropylbenzyl)-2-(N-(2-(trifluoromethyl)benzyl)-(2,3,4,5,6-pentafluoro-phenyl)sulfonamido)acetamido)-3-(dimethylamino) benzoic acid], in data set [1], the half-life at 25 μM fell in the range of 247 to 554 min. Also, the concentration for half-maximal inhibition (IC50) lay in the range of 0.01 to 316 nM in data set [2] and 20 to 30 µM in data set [3].

`Cc1cc(C(=O)O)ccc1N(Cc1cc(C2CC2)cc(C2CC2)c1)C(=O)CN(Cc1cnccc1C(F)(F)F)S(=O)(=O)c1c(F)c(F)c(F)c(F)c1F` [Compound 1216, 4-(N-(3,5-dicyclopropylbenzyl)-2-(N-((4-(trifluoromethyl)pyridin-3-yl)methyl)-(2,3,4,5,6-pentafluoro-phenyl)sulfonamido)acetamido)-3-methylbenzoic acid] showed a half-life at 25 μM in data set [1] of 0.1 to 142 min. Further, the IC50 is 0.01 to 316 nM in data set [2] and 0.001 to 10 µM in data set [3].

In data set [1], `Cc1cc(C(=O)O)ccc1N(Cc1cc(C2CC2)cc(C2CC2)c1)C(=O)CN(Cc1ccccc1C(F)(F)F)S(=O)(=O)c1c(F)c(F)c(F)c(F)c1F` [Compound 1217, 4-(N-(3,5-dicyclopropylbenzyl)-2-(N-(2-(trifluoromethyl)benzyl)-(2,3,4,5,6-pentafluoro-phenyl)sulfonamido)acetamido)-3-methylbenzoic acid] returned a half-life at 25 μM of 247 to 554 min. Further, the results for the IC50 in data set [2] and in data set [3] were 0.01 to 316 nM and 20 to 30 µM, respectively.

Turning to `Cc1cc(C(=O)O)ccc1N(Cc1cc(C2CC2)cc(C2CC2)c1)C(=O)CN(Cc1c(F)cc(F)cc1F)S(=O)(=O)c1c(F)c(F)c(F)c(F)c1F` [Compound 1218, 4-(N-(3,5-dicyclopropylbenzyl)-2-(N-(2,4,6-trifluorobenzyl)-(2,3,4,5,6-pentafluoro-phenyl)sulfonamido)acetamido)-3-methylbenzoic acid], the half-life at 25 μM in data set [1] was 0.1 to 142 min. The IC50 in data set [2] fell in the range of 0.01 to 316 nM; in data set [3] it was 0.001 to 10 µM.

In data set [1], `Cc1cc(C(=O)O)ccc1N(Cc1cc(C2CC2)cc(C2CC2)c1)C(=O)CN(Cc1ccc(F)cc1Cl)S(=O)(=O)c1c(F)c(F)c(F)c(F)c1F` [Compound 1219, 4-(2-(N-(2-chloro-4-fluorobenzyl)-(2,3,4,5,6-pentafluorophenyl)sulfon-amido)-N-(3,5-dicyclopropylbenzyl)acetamido)-3-methylbenzoic acid] displayed a half-life at 25 μM of 142 to 247 min. In addition, the IC50 in data set [2] was 0.01 to 316 nM; in data set [3], 0.001 to 10 µM.

`O=C(O)c1ccc(N(Cc2cc(C3CC3)cc(C3CC3)c2)C(=O)CN(Cc2ccc(F)cc2Cl)S(=O)(=O)c2c(F)c(F)c(F)c(F)c2F)c(OC2CCOC2)c1` (stereo not drawn) [Compound 1220, 4-(2-(N-(2-chloro-4-fluorobenzyl)-(2,3,4,5,6-pentafluorophenyl)sulfon-amido)-N-(3,5-dicyclopropylbenzyl)acetamido)-3-((tetrahydrofuran-3-yl)oxy)benzoic acid]: the half-life at 25 μM in data set [1] fell in the range of 142 to 247 min. Besides, the IC50 in data set [2] fell in the range of 0.01 to 316 nM; in data set [3], 0.001 to 10 µM.

With `O=C(O)c1ccc(N(Cc2cc(C3CC3)cc(C(F)(F)F)c2)C(=O)CN(Cc2ccccc2C(F)(F)F)S(=O)(=O)c2c(F)c(F)c(F)c(F)c2F)c(OC2CC2)c1` [Compound 1221, 3-cyclopropoxy-4-(N-(3-cyclopropyl-5-(trifluoromethyl)benzyl)-2-(N-(2-(trifluoromethyl)benzyl)-(2,3,4,5,6-pentafluoro-phenyl)sulfonamido)acetamido)benzoic acid], in data set [1], the half-life at 25 μM lay in the range of 554 to 100000 min. Besides, the 50% inhibitory concentration (IC50) in data set [2] was in the range of 316 to 1000 nM; in data set [3] it was 20 to 30 µM.

For the compound `O=C(O)c1ccc(N(Cc2cc(C3CC3)cc(C(F)(F)F)c2)C(=O)CN(Cc2ccc(F)cc2Cl)S(=O)(=O)c2c(F)c(F)c(F)c(F)c2F)c(OC2CC2)c1` [Compound 1222, 4-(2-(N-(2-chloro-4-fluorobenzyl)-(2,3,4,5,6-pentafluorophenyl)sulfon-amido)-N-(3-cyclopropyl-5-(trifluoromethyl)benzyl)acetamido)-3-cyclopropoxybenzoic acid], the half-life at 25 μM in data set [1] was in the range of 247 to 554 min. The IC50 was 0.01 to 316 nM in data set [2] and 10 to 20 µM in data set [3].

`CC(C)(C)c1cc(CN(C(=O)CN(Cc2ccc(F)cc2Cl)S(=O)(=O)c2c(F)c(F)c(F)c(F)c2F)c2ccc(C(=O)O)cc2OC2CCOC2)cc(C2CC2)c1` (stereo not drawn) [Compound 1226, 4-(N-(3-(tert-butyl)-5-cyclopropylbenzyl)-2-(N-(2-chloro-4-fluorobenzyl)-(2,3,4,5,6-pentafluorophenyl)sulfon-amido)acetamido)-3-((tetrahydrofuran-3-yl)oxy)benzoic acid] displayed a half-life at 25 μM in data set [1] of 142 to 247 min. In addition, the IC50 in data set [2] is 0.01 to 316 nM; in data set [3] it was 0.001 to 10 µM.

Turning to `CCOc1cc(C(=O)O)ccc1N(Cc1cc(C2CC2)cc(C(C)(C)C)c1)C(=O)CN(Cc1ccc(F)cc1Cl)S(=O)(=O)c1c(F)c(F)c(F)c(F)c1F` [Compound 1227, 4-(N-(3-(tert-butyl)-5-cyclopropylbenzyl)-2-(N-(2-chloro-4-fluorobenzyl)-(2,3,4,5,6-pentafluorophenyl)sulfon-amido)acetamido)-3-ethoxybenzoic acid], the half-life at 25 μM in data set [1] was 247 to 554 min. Further, the figures for the half-maximal inhibitory concentration (IC50) in data set [2] and in data set [3] were 0.01 to 316 nM and 10 to 20 µM, respectively.

`CC(C)Oc1cc(C(=O)O)ccc1N(Cc1cc(C2CC2)cc(C(C)(C)C)c1)C(=O)CN(Cc1ccc(F)cc1Cl)S(=O)(=O)c1c(F)c(F)c(F)c(F)c1F` [Compound 1228, 4-(N-(3-(tert-butyl)-5-cyclopropylbenzyl)-2-(N-(2-chloro-4-fluorobenzyl)-(2,3,4,5,6-pentafluorophenyl)sulfon-amido)acetamido)-3-isopropoxybenzoic acid] registered a half-life at 25 μM in data set [1] of 554 to 100000 min. Further, the figures for the IC50 in data set [2] and in data set [3] were 0.01 to 316 nM and 20 to 30 µM, respectively.

In turn, `O=C(O)c1ccc(N(Cc2cc(C3CC3)cc(C3CC3)c2)C(=O)CN(Cc2ccc(F)cc2Cl)S(=O)(=O)c2c(F)c(F)c(F)c(F)c2F)c(OC(F)(F)F)c1` [Compound 1231, 4-(2-(N-(2-chloro-4-fluorobenzyl)-(2,3,4,5,6-pentafluorophenyl)sulfon-amido)-N-(3,5-dicyclopropylbenzyl)acetamido)-3-(trifluoromethoxy) benzoic acid] displayed a half-life at 25 μM in data set [1] of 247 to 554 min. The results for the IC50 in data set [2] and in data set [3] were 0.01 to 316 nM and 10 to 20 µM, respectively.

`CC(C)Oc1cc(CN(C(=O)CN(Cc2ccc(F)cc2Cl)S(=O)(=O)c2c(F)c(F)c(F)c(F)c2F)c2ccc(C(=O)O)cc2OC2CC2)cc(C2CC2)c1` [Compound 1232, 4-(2-(N-(2-chloro-4-fluorobenzyl)-(2,3,4,5,6-pentafluorophenyl)sulfon-amido)-N-(3-cyclopropyl-5-isopropoxybenzyl)acetamido)-3-cyclopropoxybenzoic acid] gave a half-life at 25 μM in data set [1] of 247 to 554 min. Moreover, the 50% inhibitory concentration (IC50) in data set [2] fell in the range of 0.01 to 316 nM; in data set [3] it was 10 to 20 µM.
